Consider one molecule from US7166618B2, “Nitrosated and nitrosylated cyclooxygenase-2 inhibitors, compositions and methods of use” (NitroMed, Inc., priority 1999, dated 2007).

One test deals with T1, human COX-2 (Homo sapiens, UniProt P35354).
T1 construct: purchased Cayman Chemical, Ann Arbor, Mich
T1 sequence (P35354 18-604): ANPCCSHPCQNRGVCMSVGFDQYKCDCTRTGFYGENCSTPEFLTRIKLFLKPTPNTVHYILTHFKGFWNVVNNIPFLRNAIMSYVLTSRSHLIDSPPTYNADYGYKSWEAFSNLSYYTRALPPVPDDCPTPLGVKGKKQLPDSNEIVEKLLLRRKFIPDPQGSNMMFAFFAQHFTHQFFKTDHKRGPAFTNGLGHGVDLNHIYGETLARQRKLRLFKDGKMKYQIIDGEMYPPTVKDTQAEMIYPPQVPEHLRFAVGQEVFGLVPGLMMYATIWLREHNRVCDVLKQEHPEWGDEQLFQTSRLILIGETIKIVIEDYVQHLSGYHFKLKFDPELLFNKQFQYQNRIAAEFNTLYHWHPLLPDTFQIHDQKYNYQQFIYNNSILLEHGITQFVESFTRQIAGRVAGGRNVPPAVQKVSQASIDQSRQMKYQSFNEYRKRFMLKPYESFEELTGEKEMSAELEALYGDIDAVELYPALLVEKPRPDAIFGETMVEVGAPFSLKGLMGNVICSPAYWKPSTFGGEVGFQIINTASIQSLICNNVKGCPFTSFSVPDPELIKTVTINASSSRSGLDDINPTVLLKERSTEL
In words: Assay for human COX-2 activity (COX Inhibitor Screening Assay, Cayman). The test is classed as biochemical. The conditions noted are these: human COX-2, at 10 μM. The method, then: The human COX-1 and COX-2 activities and the measurement of the prostaglandin products synthesized were performed using the COX Inhibitor Screening Assay (Cayman Chemical, Ann Arbor, Mich., which also contained the Prostaglandin Screening EIA Kit, used for prostaglandin quantification). The test compounds were dissolved at 50 times the highest final reaction concentration in DMSO or any other suitable solvent as stock solutions. These stock solutions were then diluted in the same solvent. Eight glass test tubes (13×100 mm) were placed in a 25° C. water bath. To each test tube was added 950 μL of reaction buffer (0.1 M Tris-HCl, pH 8.0, containing 5 mM EDTA, and 2 mM phenol), 10 μL of 100 µM heme solution, and 10 μL (5 units) of either human COX-1 or COX-2 and the resulting mixture incubated with the enzyme for 2 minutes. Twenty μL of the solvent was added to one tube (100% initial activity or solvent control) and 20 μL of each dilution of the test compound was added to one tube each. Each tube was vortexed immediately after the addition. The enzyme was incubated with the inhibitor for 20 minutes at 25° C. The enzymatic reaction was then initiated by the addition of 10 μL of freshly prepared 10 mM arachidonic acid (neutralized with KOH), vortexed and then incubated for 2 minutes (or, in some cases as indicated, 30 seconds) at 37° C. The reaction was terminated by the addition of 50 μL of 1 M HCl, vortexed and placed at room temperature. One hundred microliters of a saturated stannous chloride solution (50 mg/mL of 0.1 M HCl) was added and the reaction mixture was allowed to stand at room temperature for at least 5 min.
The prostaglandins (PG) produced in the reactions were assayed, after a 2,000-fold dilution, using the Prostaglandin Screening EIA Kit (Cayman Chemical, Ann Arbor, Mich.). The assay contains an antibody with broad specificity for all the prostaglandin families (PGF, PGE, PGD, and thromboxane B-type) synthesized in the COX-1/COX 2 reactions. The synthesized prostaglandin competes with a PG-tagged acetylcholine esterase tracer for binding to the PG antibody. Binding of synthesized PG lowers the colorimetric development of the Ellman's Reagent (computed as % B/B0). The actual amount of synthesized PG was interpolated from a standard curve using known amounts of supplied prostaglandin E2 (PGE2) (PGE2 concentration vs. % B/B0). The data generated were the mean±standard deviation of triplicate wells in the EIA for a single reaction at a given inhibitor concentration.

Test [1] relates to carrageenan-induced rat paw edema. As to the kind of experiment: Carrageenan-induced rat paw edema test. It counts as in vivo. To be noted: rats dosed intragastrically, paw volume 3 hours after carrageenan. The method, then: The carrageenan-induced rat paw edema test was used to measure antiinflammatory activity. The paw edema test was performed according to the method of Winter et al, Proc. Soc. Exp. Biol. Med. 111: 544–547, 1962. Male Sprague-Dawley rats (200–250 g) were fasted for 24 hours with water ad libitum. The rats were dosed intragastrically with test compounds in a volume of 5 mL/kg. One hour after dosing the paw volume was measured. Then each rat received a subplantar injection of 50 μl of 1% suspension of carrageenan. Three hours later, the paw volume was measured and compared with the initial volume measured […]. The increase in paw volume is presented as the mean±SEM for 5 rats per group. Data were analyzed by performing an ANOVA test followed by a Student-Keuls post hoc test.

Test [2] has as its system rat aortic smooth muscle rings. As to the kind of experiment: Relaxation of phenylephrine-contracted rat aortic smooth muscle rings. To be noted: rings precontracted with 10 μM phenylephrine. Here is the method: Male Sprague-Dawley rats (Charles River Laboratories (Wilmington, Mass.) were euthanized by intraperiton injection of a high dose of sodium pentobarbitone (80–100 mg/kg). The thoracic aorta was rapidly excised and immediately placed in a Petri dish containing warm (37° C.) oxygenated (95% O2 and 5% CO2) Kreb's buffer (composition per millimolar: NaCl (119); KCl (4.69); CaCl2.H2O (2.52); MgSO4.7H2O (0.57); NaHCO3 (25); NaH2PO4.H2O (1.01) and glucose (11.1). Under a stereoscopic dissecting microscope, the aorta was cleaned, freed from adhering fat and connective tissues. The tissue was cut into ring segments, each approximately 2–3 mm in length.
For experiments to measure relaxation of the tissue under various conditions, a stainless steel tissue holder and an U-shaped stainless steel wire were inserted into the lumen of the aortic ring. The tissue holder anchored the ring at the bottom of the organ bath whereas the end of the U-shaped steel wire was tied with fine silk thread so that it connected to the FT-202 transducer. The tissue holder and the steel wire along with the aortic ring were then suspended in a 5-mL double-jacketed temperature-controlled glass organ bath (Radnoti Glass Technology, Inc., Monrovia, Calif.) filled with fresh Kreb's buffer. A mixture of 95% O2 and 5% CO2 was bubbled through a porous sintered disc at the bottom of the bath. The rings were given an initial resting tension of 1.5 g and the preparation was allowed to equilibrate at the initial tension for about 90 minutes. During this equilibration period, the bath fluid was changed every 15 minutes and replaced with fresh prewarmed (37° C.) Kreb's buffer. The isometric tension of the aortic muscle at rest and its response to different stimuli were recorded on a Power Macintosh 6100 computer via a MacLab 8/S computer interface (CB Sciences, Inc, Milford, Mass.) after an initial amplification through a low-noise ETH-400 bioamplifier (CB Sciences, Inc, Milford, Mass.). Contractile responsiveness of the tissue strips was established with 10 μM phenylephrine and the strips were incubated with the drug for 20 minutes to establish a steady level of contraction. To test the relaxation effects, test compounds were added to the phenylephrine-precontracted strips in the tissue bath at cumulative concentrations of 0.1 μM to 0.1 mM. Concentration of test compounds was increased only after relaxation at the previous concentration had reached a plateau level.

On human COX-2, `NS(=O)(=O)c1ccc(-c2c(-c3ccccc3)noc2CO[N+](=O)[O-])cc1` [Example 2b, 4-(5-((Nitrooxy)methyl)-3-phenylisoxazol-4-yl)benzenesulfonamide] registered an inhibition at 10 µM of 100%. In addition, the “paw volume (antiinflammatory activity)” value in test [1] is “reduced the paw volume”. The “relaxation of aortic smooth muscle ring” value in test [2] (100 nM to 100 μM test compound) is listed as “induced the relaxation of the aortic ring”. The “relaxation compared with reference NO donor (ISDN or GSNO)” value in test [2] (comparator as in the value) is “comparable to that obtained with ISDN”.

A word on the inhibition: it is the change of the read-out against control, counted positive when it falls.
